Measured values published in PMC10482825 (Scientific Reports, 2023).
Where a SMILES comes first, the peptide text is derived from it.

Columns and labels:
[1] = tested on: the different tested pathogens; assay type: cell-based; details: span over tested pathogens, undetected values disregarded
Excerpt: (§1) The microbial strains used in this study were Bacillus subtilis (ATCC, 11774), Candida albicans (TIMM, 1768), Enterococcus faecalis (ATCC, 33186), Escherichia coli (ATCC, 11775), Klebsiella pneumoniae (ATCC, 13883), Methicillin-resistant Staphylococcus aureus (ATCC, BAA-41), Pseudomonas aeruginosa (ATCC, 10145), Salmonella enterica (ATCC, 14028), Serratia marcescens (ATCC, 13880), Staphylococcus aureus (ATCC, 25923) and Vibrio parahaemolyticus (ATCC, 17802). All microbial strains were cultivated overnight at 37 °C and 200 rpm, then subcultured and incubated for 3 h under the same incubation conditions to obtain the mid-logarithmic growth phase. The cultivated cells were washed twice with 10 mM Tris–HCl containing 5 mM D-glucose at pH 7.4 and suspended in the same buffer to be used in different assays, as previously described.
As a conclusive quantitative assessment, broth microtiter assay was used to determine the MIC values of each cryptide against B. subtilis, MRSA, S. enterica, P. aeruginosa, V. parahaemolyticus and C. albicans by following the guidelines of the Clinical and Laboratory Standards Institute (CLSI)[67], with slight modifications. Eighty microliters of 5 × 10^4 CFU/ml of each pathogen were dispensed into a 96-well polypropylene microtiter plate. The wells were then treated with 20 µl of serially diluted cryptides for 3 h at 37 °C. Gentamicin was used for positive controls at 0.2 mg/ml while an equivalent volume of acidified water was used for negative controls. The plates were then topped up with a final concentration of 1 × Mueller Hinton Broth (MHB) and incubated for 18 h under the same incubation conditions. MIC was detected as the lowest concentration of each cryptide that prevents the optically detectable microbial growth at OD = 600 nm.

[2] = tested on: B. subtilis; test: Radial diffusion assay; assay type: cell-based, Bacillus subtilis (ATCC, 11774); details: 5 µl of 500 µM per 3 mm well, 37 °C, mean ± SD
Excerpt: as §1
(§2) The antimicrobial activity spectra of the selected cryptides were screened against all the mentioned microbial pathogens, except V. parahaemolyticus, by radial diffusion assay as previously described, with slight modifications. […] The plates were then incubated for 18 h, and the antimicrobial activities were measured in the absolute unit (AU), as previously described. […]
(§3) plate. The plates were then incubated for 12 h at 37 °C and antimicrobial activities were measured in the term of absolute unit (A.U). […]

[3] = tested on: S. aureus; test: Radial diffusion assay; assay type: cell-based, Staphylococcus aureus (ATCC, 25923); details: 5 µl of 500 µM per 3 mm well, 37 °C, mean ± SD
Excerpt: as §1, §2, §3

[4] = tested on: E. faecalis; test: Radial diffusion assay; assay type: cell-based, Enterococcus faecalis (ATCC, 33186); details: 5 µl of 500 µM per 3 mm well, 37 °C, mean ± SD
Excerpt: as §1, §2, §3

[5] = tested on: K. pneumoniae; test: Radial diffusion assay; assay type: cell-based, Klebsiella pneumoniae (ATCC, 13883); details: 5 µl of 500 µM per 3 mm well, 37 °C, mean ± SD
Excerpt: as §1, §2, §3

[6] = tested on: MRSA; test: Radial diffusion assay; assay type: cell-based, Methicillin-resistant Staphylococcus aureus (ATCC, BAA-41); details: 5 µl of 500 µM per 3 mm well, 37 °C, mean ± SD
Excerpt: as §1, §2, §3

[7] = tested on: S. marcescens; test: Radial diffusion assay; assay type: cell-based, Serratia marcescens (ATCC, 13880); details: 5 µl of 500 µM per 3 mm well, 37 °C, mean ± SD
Excerpt: as §1, §2, §3

[8] = tested on: S. epidermidis; test: Radial diffusion assay; assay type: cell-based; details: 5 µl of 500 µM per 3 mm well, 37 °C, mean ± SD
Excerpt: The antimicrobial activity spectra of the selected cryptides were screened against all the mentioned microbial pathogens, except V. parahaemolyticus, by radial diffusion assay as previously described, with slight modifications. We aimed to test different categories of pathogens on the WHO global priority due to their growing resistance to the available antibiotics such as P. aeruginosa, E. coli and K. pneumoniae in the critical category and Salmonella ssp. and S. aureus in the high category. Briefly, a total of 4 × 10^6 CFU of each pathogen was inoculated in 10 mL of an underlay agarose gel [0.03% w/v tryptone soy broth (TSB) medium, 1% w/v agarose and 0.02% v/v Tween 20 in 10 mM Tris–HCl] that was then poured into a 100-mm petri dish. After agarose solidification, 3 mm-diameter wells were punched by a sterile cork borer and 5 µl of 500 µM stock solution from each cryptide was added to each well. Melittin and acidified water were used as positive and negative controls, respectively. […] The plates were then incubated for 18 h, and the antimicrobial activities were measured in the absolute unit (AU), as previously described. […]
as §3

[9] = tested on: P. aeruginosa; test: Radial diffusion assay; assay type: cell-based, Pseudomonas aeruginosa (ATCC, 10145); details: 5 µl of 500 µM per 3 mm well, 37 °C, mean ± SD
Excerpt: as §1, §2, §3

[10] = tested on: C. albicans; test: Radial diffusion assay; assay type: cell-based, Candida albicans (TIMM, 1768); details: 5 µl of 500 µM per 3 mm well, 37 °C, mean ± SD
Excerpt: as §1, §2, §3

[11] = tested on: V. parahaemolyticus; test: Micro-broth dilution MIC / MBC; assay type: cell-based, Vibrio parahaemolyticus (ATCC, 17802); details: 37 °C
Excerpt: as §1
As a conclusive quantitative assessment, broth microtiter assay was used to determine the MIC values of each cryptide against B. subtilis, MRSA, S. enterica, P. aeruginosa, V. parahaemolyticus and C. albicans by following the guidelines of the Clinical and Laboratory Standards Institute (CLSI)[67], with slight modifications. […] MIC was detected as the lowest concentration of each cryptide that prevents the optically detectable microbial growth at OD = 600 nm.

Row | Molecule | MBC values, range against the different tested pathogens [1] | MIC values, range against the different tested pathogens [1] | Antimicrobial activity (inhibition zone) B. subtilis [2] [A.U.] | Antimicrobial activity (inhibition zone) S. aureus [3] [A.U.] | Antimicrobial activity (inhibition zone) E. faecalis [4] [A.U.] | Antimicrobial activity (inhibition zone) K. pneumoniae [5] [A.U.] | Antimicrobial activity (inhibition zone) MRSA [6] [A.U.] | Antimicrobial activity (inhibition zone) S. marcescens [7] [A.U.] | Antimicrobial activity (inhibition zone) S. epidermidis [8] [A.U.] | Antimicrobial activity (inhibition zone) P. aeruginosa [9] [A.U.] | Antifungal activity (inhibition zone) C. albicans [10] [A.U.] | MBC (µM) V. parahaemolyticus ([11]; 20 µl of wells without growth on agar, 18 h) [µM] | MIC (µM) V. parahaemolyticus ([11]; micro-broth dilution, 3 h peptide treatment then MHB 18 h, OD 600 nm) [µM]
1 | CC(C)C[C@H](NC(=O)[C@H](CCCNC(=N)N)NC(=O)[C@H](Cc1c[nH]c2ccccc12)NC(=O)[C@H](CCCNC(=N)N)NC(=O)[C@H](CC(C)C)NC(=O)[C@@H](N)Cc1ccccc1)C(=O)N[C@@H](CCCCN)C(=O)N[C@@H](Cc1ccccc1)C(=O)N[C@@H](CCCCN)C(=O)N[C@@H](CO)C(=O)N[C@@H](CCCCN)C(=O)N[C@H](C(=O)N[C@@H](Cc1c[nH]c2ccccc12)C(=O)N[C@@H](CS)C(=O)N1CCC[C@H]1C(=O)O)C(C)C [AD7] (H-FLRWRLKFKSKVWCP-OH) | 0.39 ~ 25 µM | 0.39 ~ 6.25 µM | – | – | – | – | – | – | – | – | – | – | –
2 | RHCLRSKRPPNVCPH [AD4, cationic cryptide from P. vannamei precursor DN34505 (Pl-crustin 2), chemically synthesised] | – | – | 13.8± 0.7 | 24.4 ± 0.9 | 14.7 ± 1.2 | 0 | 12.2 ± 1.1 | 0 | 9 ± 0 | 0 | 2.1 ± 0.5 | > 50 | > 50
